Two compounds from PMC7811808, “Design, synthesis, and biological evaluation of novel 5,6,7-trimethoxy quinolines as potential anticancer agents and tubulin polymerization inhibitors” (Iranian Journal of Basic Medical Sciences, 2020) can be followed below.

What is called melting point is the temperature of the solid-liquid transition.

The subject of one data set is A2780/RCIS. Nature of the data set: MTT antiproliferative activity assay. It counts as cell-based. The settings on record: Homo sapiens, A2780; MTT, 48 hr; read-out: IC50 A2780/RCIS. Here is the method:
(§1) The MTT assay was done by seeding 5.0×10^3 human cancer cells or normal cells per well in 96-well plates ([34]-[36]). Following overnight incubation of the cells in 5% CO2 at 37 °C, culture medium of each well was exchanged with medium having reference anti-cancer agent CA-4 as well as different concentrations of synthesized compounds and RPMI (no drug) negative control and cells were incubated 48 hr. Then MTT solution (25 μl, 4 mg ml ^-1) was added to each well and the cells were incubated at 37 °C (for 3 hr). Finally, formazan crystals were dissolved in DMSO (100 μl) and plates were read in a plate reader (Synergy H4, USA) at 540 nm. The cytotoxic activity of the synthesized compounds was evaluated against different human cancer cell lines including […]-7 and MCF-7/MX, and normal cells by MTT assay. Combretastatin A-4 (CA-4) was used as the positive control.
A general note: Tetrazolium dyes change colour on reduction, which living cells bring about.

The subject of another data set is A2780. Nature of the data set: MTT antiproliferative activity assay. The format is cell-based. The conditions noted are these: Homo sapiens, 48 hr. Here is the method:
as §1

Another data set relates to MCF-7/MX. Nature of the data set: MTT antiproliferative activity assay. The conditions noted are these: Homo sapiens, MCF7/MX; MTT, 48 hr; read-out: IC50 MCF-7/MX. The format is cell-based. Here is the method:
as §1

The subject of a further data set is MCF-7. The data set can be described thus: MTT antiproliferative activity assay. The format is cell-based. The settings on record: Homo sapiens, MCF7, 48 hr. How it is done:
as §1

In the next data set the test system is HUVEC. The data set can be described thus: MTT assay on normal cells. The format is cell-based. The conditions noted are these: Homo sapiens, 48 hr. How it is done: as §1
The subject of data set [1] is A2780, A2780/RCIS, MCF-7 and MCF-7/MX. Nature of the data set: MTT assay, statements over all four cancer cell lines. It counts as cell-based. The conditions noted are these: Homo sapiens, range over four cell lines, read-out: IC50 values range against all four human cancer cells. Here is the method: as §1
Another data set has as its target T1, tubulin (Sus scrofa, UniProt P02550+P02554).
T1 construct: purchased cytoskeleton BK011P
Nature of the data set: In vitro tubulin polymerization assay (fluorescence kit). The settings on record: compound 20 µM; CA-4 5 µM. The format is biochemical. Here is the method: A commercial kit (cytoskeleton, cat. #BK011P) was used to evaluate the tubulin polymerization inhibition activity of compounds ([37]). Briefly, tubulin protein was added to tubulin buffer (80 mM PIPES, 2 mM MgCl2, 0.5 mM EGTA, 1 mM GTP, […], PH 6.9) and the acquired mixture was added to wells of a 96-well plate comprising the cytotoxic compounds or vehicle. Tubulin polymerization was observed by detecting the fluorescence augmentation due to the addition of a fluorescence reporter into microtubules as polymerization occurred. Polymerization was measured by excitation at 360 nm and emission at 420 nm for 1 hr at 1 min intervals in a plate reader (Synergy H4, USA). CA-4 (5 μM) and paclitaxel (3 μM) were used as positive destabilizing and positive stabilizing controls, respectively.
In order to check if the cytotoxic activity of our quinolines was correlated to their ability to inhibit tubulin, compounds 7e and 7f and CA4 (polymerization suppressor) and paclitaxel (polymerization promoter) were assessed for their activity in a microtubule polymerization assay.

Another data set concerns A2780 cancer cells. Nature of the data set: Cell cycle analysis by flow cytometry (PI). The format is cell-based, human. The conditions noted are these: 48 hr. An excerpt:
(§2) Flow cytometry with propidium iodide (PI) was used to analyze the cell numbers in the cell cycle phases. […] Flowjo software 7.6 was used to analyze the data regarding the cell numbers in different phases of the cell cycle.
(§3) Tubulin inhibitors arrest cell cycle at the G2/M phase in cancer cells owing to destruction of the microtubular cytoskeleton. To get more understanding of the mechanism of action, the effects of compounds 7f and 7e on the cell cycle were examined by ﬂow cytometry in four human cancer cell lines (MCF-7, MCF-7/MX, A2780, and A2780/RCIS). […] When A2780 cancer cells were treated with 7f and 7e for 48 hr, the percentage of cells in the G2/M phase was 15.70% (7f, 1 μM), 17.74% (7f, 10 μM), 23.30% (7e, 5μM), and 4.15% (7e, 15μM) compared with the negative control (4.84%). Moreover, the percentage of A2780 cancer cells in the subG1 phase was 18.58% (7f, 10 μM) and 68.16% (7e, 15 μM).

In another data set the test system is A2780/RCIS cancer cells. Nature of the data set: Cell cycle analysis by flow cytometry (PI). The settings on record: 48 hr. It counts as cell-based, human.
Text: as §2, §3
On the technique in general: A flow cytometer gives signals particle by particle.

The next data set deals with MCF-7 cancer cells. Nature of the data set: Cell cycle analysis by flow cytometry (PI). It counts as cell-based, human. The conditions noted are these: 48 hr.
Text: as §2, §3

For another data set, the system named is MCF-7/MX cancer cells. The data set can be described thus: Cell cycle analysis by flow cytometry (PI). The format is cell-based, human. The settings on record: 48 hr.
Text: as §2, §3

Another data set deals with A2780 cells. Nature of the data set: Apoptosis assay (Annexin V/PI staining). The format is cell-based, human. The settings on record: 24 hr. How it is done: A2780 cells ([…]) were seeded in six-well plates and incubated overnight. Then the medium was replaced with a complete medium containing compound 7e (3 and 15 µM concentrations). After 24 hr incubation, the cells were […] and washed with PBS and incubated with buffer including 10 mM HEPES, 140 mM NaCl, and 2.5 mM CaCl2 (pH 7.4) and also PI and annexin V-FITC at room temperature (20 min) ([38]). The samples were analyzed using a flow cytometer (Beckman Coulter), and the results were assessed using the Flowjo software.
Then, to investigate the mode of cell death caused by 7e, flow cytometry was done using propidium iodide (PI) ([19]), which only colors DNA and only enter dead cells, and Annexin-V (the fluorescence probe), which binds to the early apoptotic cells selectively ([20]).

T1 sequence (P02550 whole entry): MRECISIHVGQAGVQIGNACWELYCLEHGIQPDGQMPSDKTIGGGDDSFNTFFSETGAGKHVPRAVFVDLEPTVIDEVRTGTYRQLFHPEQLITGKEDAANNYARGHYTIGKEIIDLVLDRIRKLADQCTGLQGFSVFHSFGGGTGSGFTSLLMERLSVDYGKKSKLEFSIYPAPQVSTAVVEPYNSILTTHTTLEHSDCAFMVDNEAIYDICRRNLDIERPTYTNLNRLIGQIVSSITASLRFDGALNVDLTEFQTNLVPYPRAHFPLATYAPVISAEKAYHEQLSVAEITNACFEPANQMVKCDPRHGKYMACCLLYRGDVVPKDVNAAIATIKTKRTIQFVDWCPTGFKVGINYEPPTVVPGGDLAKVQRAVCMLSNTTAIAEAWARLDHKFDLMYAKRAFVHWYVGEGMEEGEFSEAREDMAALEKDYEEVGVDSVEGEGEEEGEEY
T1 sequence (P02554 whole entry): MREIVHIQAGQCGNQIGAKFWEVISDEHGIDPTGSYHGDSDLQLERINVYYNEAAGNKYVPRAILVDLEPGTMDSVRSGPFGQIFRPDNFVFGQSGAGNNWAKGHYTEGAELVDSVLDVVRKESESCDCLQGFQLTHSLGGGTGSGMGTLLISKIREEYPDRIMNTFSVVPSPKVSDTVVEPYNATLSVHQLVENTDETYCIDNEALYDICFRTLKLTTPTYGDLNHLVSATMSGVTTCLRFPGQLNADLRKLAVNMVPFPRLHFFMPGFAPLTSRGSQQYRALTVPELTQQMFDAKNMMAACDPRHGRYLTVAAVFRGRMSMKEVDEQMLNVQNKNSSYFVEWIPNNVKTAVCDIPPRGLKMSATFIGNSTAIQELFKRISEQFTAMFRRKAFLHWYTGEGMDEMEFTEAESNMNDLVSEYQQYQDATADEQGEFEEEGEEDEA

Consider `COc1cc2nc(C)cc(Nc3ccc(C(=O)c4ccccc4)cc3)c2c(OC)c1OC` [Compound 7e], for which the IC50 with A2780/RCIS is 6.66 ± 1.35 µM; with A2780, 11.3 ± 1.47 µM; with MCF-7/MX, 10.9 ± 1.28 µM; in the data set with MCF-7 it was 33 ± 2.51 µM; in the data set on HUVEC it was > 100 µM; in data set [1] it was 5.02 to 35.8 µM. The “tubulin polymerization inhibition” value at tubulin is given as “inhibited tubulin polymerization in a way similar to that of CA-4”. Moreover, the G2/M with A2780 cancer cells (A2780, 5 μM) amounted to 23.30%; in the data set on A2780 cancer cells (A2780, 15 μM), 4.15%; with A2780/RCIS cancer cells (1 μM), 24.91%; with A2780/RCIS cancer cells (5 μM), 25.93%; with MCF-7 cancer cells (MCF-7, 20 μM) it was 25.91%; with MCF-7 cancer cells (MCF-7, 30 μM), 34.45%. Further, the values for the G2/M in the data set on MCF-7/MX cancer cells (1 μM) and with MCF-7/MX cancer cells (10 μM) were 25.41% and 37.85%, respectively. Further, the SubG1 in the data set on A2780 cancer cells (A2780, 15 μM) turned out to be 68.16%. The “total apoptotic cells including early and late apoptotic cells” value with A2780 cells (A2780, 3 µM) is 8.02%; in the data set on A2780 cells (A2780, 15 µM) it was 28.57%.
Turning to `COc1cc2nc(C)cc(Nc3ccc(Oc4ccccc4)cc3)c2c(OC)c1OC` [Compound 7f, 5,6,7-Trimethoxy-2-methyl-N-(4-phenoxyphenyl)quinolin-4-amine], the melting point was 192 to 195 °C. For the same compound, the IC50 in the data set on A2780/RCIS was found to be 5.02 ± 1.14 µM. Further, in the data set on A2780, the IC50 was determined as 8.43 ± 1.85 µM. Moreover, the IC50 in the data set with MCF-7/MX came out at 9.04 ± 1.2 µM. Besides, the IC50 with MCF-7 turned out to be 10.1 ± 1.63 µM. The IC50 in the data set on HUVEC came to 8.9 ± 1.26 µM. The IC50 in data set [1] lay in the range of 5.02 to 35.8 µM. Further, the “tubulin polymerization inhibition” value on tubulin was “inhibited tubulin polymerization in a way similar to that of CA-4”. Further, in the data set on A2780 cancer cells (A2780, 1 μM), the G2/M is 15.70%. In the data set with A2780 cancer cells (A2780, 10 μM), this compound had a G2/M of 17.74% and a SubG1 of 18.58%. In addition, the G2/M in the data set on A2780/RCIS cancer cells (1 μM) is 20.68%. In the data set with A2780/RCIS cancer cells (5 μM), this compound displayed a G2/M of 19.38%. The compound also had a G2/M with MCF-7 cancer cells (MCF-7, 1 μM) of 19.01%. The G2/M in the data set on MCF-7 cancer cells (MCF-7, 10 μM) came out at 24.01%. This compound also returned a G2/M in the data set with MCF-7/MX cancer cells (10 μM) of 23.73%. Also, the G2/M in the data set with MCF-7/MX cancer cells (20 μM) was 29.37%.
